Measured values as given in patent US20250188103A1, “HETEROCYCLIC GLP-1 AGONISTS” (Gasherbrum Bio, Inc., priority 2022, published 2025).

These molecules were tested against T1, GLP-1 Receptor (Homo sapiens, UniProt P43220) (assay: GLP-1R agonist cAMP stimulation assay). Details: cells stably expressing the GLP-1 Receptor (method not given).
T1 construct: HD Biosciences / HDB (Method 3); host or cells: CHO-K1 (Methods 1, 2) or HEK293/CRE-Luc (Method 3)
Assay type: cell-based
Method: Activation of GLP-1 receptor is known to stimulate cyclic AMP (cAMP) production in cells which indicates primary coupling to the Gas subunit of the G protein heterotrimeric complex.
Method 1: To optimize functional activity directed toward Gas coupling, a CHO-K1 cell line developed by DiscoverX stably expressing the GLP-1 Receptor is used. Cells expressing GLP-1 receptor are plated in a 384-well microtiter plates and incubated overnight at 37° C. with 5% CO2 to allow the cells to attach and grow. Media is then aspirated from the cells and replaced with 15 μL Hanks Balanced Salt Solution (HBSS)/5 mM Hepes:0.5 mM IBMX 0.1% BSA (pH 7.4) [Stimulation Buffer]. […] previously generated compound sample stocks at 4× final concentration in Stimulation Buffer are then added to the cells and allowed to incubate at 37° C. for 30 or 60 minutes.
After incubation the assay signal is generated using a europium chelate-labeled cAMP tracer which competes with cAMP for binding sites on a cAMP-specific monoclonal antibody labeled with ULight™ dye. When antibodies are bound to the Eu-labeled cAMP tracer FRET transfer between the Eu chelate and ULight™ labeled antibodies is detected. Free cAMP produced from stimulated cells competes with the Eu-cAMP tracer for binding to the ULight™-mAb causing a decrease in the TR-FRET signal in a dose dependent manner.
The method for detection of cAMP using the Eu-chelate technology requires incubation with Eu-cAMP tracer solution+ULight™-anti-cAMP solution for one hour at room temperature. Microplates are read following signal generation with a PerkinElmer Envision instrument utilizing TR-FRET signal detection. Percentage activity is calculated using the following formula: […]
Method 2: To optimize functional activity directed toward Gas coupling, a CHO-K1 cell line developed by DiscoverX stably expressing the GLP-1 Receptor is used. Cells expressing GLP-1 receptor are plated in a 384-well microtiter plates and incubated overnight at 37° C. with 5% CO2 to allow the cells to attach and grow. Media is then aspirated from the cells and replaced with 15 μL 2:1 Hanks Balanced Salt Solution (HBSS)/10 mM Hepes: cAMP XS+Ab reagent. Five microliters (5 μL) of previously generated compound sample stocks at 4× final concentration in assay buffer are then added to the cells and allowed to incubate at 37° C. for 30 or 60 minutes.
After incubation the assay signal is generated using enzyme fragment complementation (EFC). In EFC, the enzyme B-galactosidase is split into two complementary portions (EA and ED). The fragment ED is fused to cAMP and in the assay format competes with endogenous cAMP for binding to a cAMP specific antibody. Activated B-Gal is formed when exogenous EA fragment binds to free ED-cAMP (not bound to cAMP specific antibody). Activated enzyme levels are detected through conversion of B-gal chemiluminescent substrate which generates a detectable luminescence signal and read on standard microtiter plate.
The methodology for detection of cAMP using EFC requires incubation with 20 μL of cAMP XS+ED/CL lysis cocktail for one hour followed by incubation with 20 μL cAMP XS+EA reagent for three hours at room temperature. Microplates are read following signal generation with a PerkinElmer Envision instrument utilizing chemiluminescent signal detection. Compound activity is analyzed using CBIS data analysis suite (ChemInnovation, CA). Percentage activity is calculated using the following formula: […]
Method 3: Activation of GLP-1 receptor is known to stimulate cyclic AMP (cAMP) production in cells which indicates primary coupling to the Gas subunit of the G protein heterotrimeric complex.
To optimize functional activity directed toward Gas coupling, a HEK293/CRE-Luc cell line developed by HDB stably expressing the GLP-1 Receptor was used. […]

T1 sequence (P43220 24-463): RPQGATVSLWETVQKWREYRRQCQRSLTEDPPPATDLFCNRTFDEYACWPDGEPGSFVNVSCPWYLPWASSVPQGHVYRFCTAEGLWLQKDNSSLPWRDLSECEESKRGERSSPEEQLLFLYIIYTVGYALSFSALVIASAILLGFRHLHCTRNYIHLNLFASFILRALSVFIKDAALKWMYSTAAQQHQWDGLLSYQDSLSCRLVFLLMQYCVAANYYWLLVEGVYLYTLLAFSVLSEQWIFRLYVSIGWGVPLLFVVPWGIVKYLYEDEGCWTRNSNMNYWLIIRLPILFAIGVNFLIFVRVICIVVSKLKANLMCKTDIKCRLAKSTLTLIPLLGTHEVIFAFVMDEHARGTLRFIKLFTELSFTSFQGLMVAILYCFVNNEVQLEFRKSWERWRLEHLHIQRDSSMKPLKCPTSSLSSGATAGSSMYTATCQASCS

Structure (SMILES)	EC50
CNc1cc(-n2ccn(-c3c4c(nn3-c3cc(C)c(F)c(C)c3)CCN(C(=O)c3cc5cc(C6CCOCC6)ccn5c3C3(c5noc(=O)[nH]5)CC3)[C@H]4C)c2=O)ccc1P(C)(C)=O [Compound 3]	0.07 nM
CNc1cc(-n2ccn(-c3c4c(nn3-c3ccc(F)c(C5CC5)c3)CCN(C(=O)c3cc5cc(C6CCOCC6)ccn5c3C3(c5noc(=O)[nH]5)CC3)[C@H]4C)c2=O)ccc1P(C)(C)=O [Compound 4]	0.085 nM
CCP(=O)(CC)c1ccc(-n2ccn(-c3c4c(nn3-c3ccc(F)c(C5CC5)c3)CCN(C(=O)c3cc5cc(C6CCOCC6)ccn5c3C3(c5noc(=O)[nH]5)CC3)[C@H]4C)c2=O)cc1NC [Compound 5]	0.11 nM
[2H]C([2H])([2H])Nc1cc(-n2ccn(-c3c4c(nn3-c3ccc(F)c(C5CC5)c3)CCN(C(=O)c3cc5cc(C6CCOCC6)ccn5c3C3(c5noc(=O)[nH]5)CC3)[C@H]4C)c2=O)ccc1P(C)(C)=O [Compound 6]	0.089 nM
CCP(=O)(CC)c1ccc(-n2ccn(-c3c4c(nn3-c3cc(C)c(F)c(C)c3)CCN(C(=O)c3sc5cc(C6CCOCC6)ccc5c3C3(c5noc(=O)[nH]5)CC3)[C@H]4C)c2=O)cc1NC [Compound 18, 3-(1-{2-[(4S)-3-{3-[4-(diethylphosphoryl)-3-(methylamino)phenyl]-2-oxo-2,3-dihydro-1H-imidazol-1-yl}-2-(4-fluoro-3,5-dimethylphenyl)-4-methyl-2H,4H,5H,6H,7H-pyrazolo[4,3-c]pyridine-5-carbonyl]-6-(oxan-4-yl)-1-benzothiophen-3-yl}cyclopropyl)-4,5-dihydro-1,2,4-oxadiazol-5-one]	0.061 nM
CCP(=O)(CC)c1ccc(-n2ccn(-c3c4c(nn3-c3cc(C)c(F)c(C)c3)CCN(C(=O)c3oc5cc(C6CCOCC6)ccc5c3C3(c5noc(=O)[nH]5)CC3)[C@H]4C)c2=O)cc1NC [Compound 19, 3-(1-{2-[(4S)-3-{3-[4-(diethylphosphoryl)-3-(methylamino)phenyl]-2-oxo-2,3-dihydro-1H-imidazol-1-yl}-2-(4-fluoro-3,5-dimethylphenyl)-4-methyl-2H,4H,5H,6H,7H-pyrazolo[4,3-c]pyridine-5-carbonyl]-6-(oxan-4-yl)-1-benzofuran-3-yl}cyclopropyl)-4,5-dihydro-1,2,4-oxadiazol-5-one]	0.049 nM
CCP(=O)(CC)c1ccc(-n2ccn(-c3c4c(nn3-c3cc(C)c(F)c(C)c3)CCN(C(=O)c3cn5cc(C6CCOCC6)ccc5c3C3(c5noc(=O)[nH]5)CC3)[C@H]4C)c2=O)cc1NC [Compound 20, 3-(1-{2-[(4S)-3-{3-[4-(diethylphosphoryl)-3-(methylamino)phenyl]-2-oxo-2,3-dihydro-1H-imidazol-1-yl}-2-(4-fluoro-3,5-dimethylphenyl)-4-methyl-2H,4H,5H,6H,7H-pyrazolo[4,3-c]pyridine-5-carbonyl]-6-(oxan-4-yl)indolizin-1-yl}cyclopropyl)-4,5-dihydro-1,2,4-oxadiazol-5-one]	0.03 nM

More lines, now with the values ahead:

EC50	Structure (SMILES)
0.02 nM	CCP(=O)(CC)c1ccc(-n2ccn(-c3c4c(nn3-c3cc(C)c(F)c(C)c3)CCN(C(=O)c3cc5cc(C6CCOCC6)ccn5c3C3(c5noc(=O)[nH]5)CC3)[C@H]4C)c2=O)cc1NC [Compound 21, 3-(1-{2-[(4S)-3-{3-[4-(diethylphosphoryl)-3-(methylamino)phenyl]-2-oxo-2,3-dihydro-1H-imidazol-1-yl}-2-(4-fluoro-3,5-dimethylphenyl)-4-methyl-2H,4H,5H,6H,7H-pyrazolo[4,3-c]pyridine-5-carbonyl]-7-(oxan-4-yl)indolizin-3-yl}cyclopropyl)-4,5-dihydro-1,2,4-oxadiazol-5-one]
0.18 nM	CCP(=O)(CC)c1ccc(-n2ccn(-c3c4c(nn3-c3cc(C)c(F)c(C)c3)CCN(C(=O)c3nn5cc(C6CCOCC6)cnc5c3C3(c5noc(=O)[nH]5)CC3)[C@H]4C)c2=O)cc1NC [Compound 24]
0.014 nM	CCP(=O)(CC)c1ccc(-n2ccn(-c3c4c(nn3-c3cc(C)c(F)c(C)c3)CCN(C(=O)c3cc5cc(C6CCOCC6)cnn5c3C3(c5noc(=O)[nH]5)CC3)[C@H]4C)c2=O)cc1NC [Compound 26, 3-(1-{6-[(4S)-3-{3-[4-(diethylphosphoryl)-3-(methylamino)phenyl]-2-oxo-2,3-dihydro-1H-imidazol-1-yl}-2-(4-fluoro-3,5-dimethylphenyl)-4-methyl-2H,4H,5H,6H,7H-pyrazolo[4,3-c]pyridine-5-carbonyl]-3-(oxan-4-yl)pyrrolo[1,2-b]pyridazin-7-yl}cyclopropyl)-4,5-dihydro-1,2,4-oxadiazol-5-one]
0.033 nM	CCP(=O)(CC)c1ccc(-n2ccn(-c3c4c(nn3-c3cc(C)c(F)c(C)c3)CCN(C(=O)c3[nH]c5cc(C6CCOCC6)ccc5c3C3(c5noc(=O)[nH]5)CC3)[C@H]4C)c2=O)cc1NC [Compound 28, 3-(1-{2-[(4S)-3-{3-[4-(diethylphosphoryl)-3-(methylamino)phenyl]-2-oxo-2,3-dihydro-1H-imidazol-1-yl}-2-(4-fluoro-3,5-dimethylphenyl)-4-methyl-2H,4H,5H,6H,7H-pyrazolo[4,3-c]pyridine-5-carbonyl]-6-(oxan-4-yl)-1H-indol-3-yl}cyclopropyl)-2,5-dihydro-1,2,4-oxadiazol-5-one]
29 nM	CCP(=O)(CC)c1ccc(-n2ccn(-c3c(-c4cc(C)c(F)c(C)c4)nn4c3C(C)N(C(=O)c3nc5cc(C6CCOCC6)ccn5c3C3(c5noc(=O)[nH]5)CC3)CC4)c2=O)cc1NC (stereo not shown) [Compound 29]
0.32 nM	CCP(=O)(CC)c1ccc(-n2ccn(-c3c(-c4cc(C)c(F)c(C)c4)nn4c3C(C)N(C(=O)c3sc5cc(C6CCOCC6)ccc5c3C3(c5noc(=O)[nH]5)CC3)CC4)c2=O)cc1NC (stereo not shown) [Compound 30]
